The record followed here is patent publication US10918891B2, “Cosmetic treatment method for the skin” (SYNTIVIA, priority 2016, dated 2021).

SMILES strings stand for the structures.

The subject of assay [1] is normal human Keratinocytes (NHEK). Nature of the assay: Reactive oxygen species (H2DCFDA probe) in NHEK after single UVA stress. In kind it is cell-based. The method, then: The cells used for this example are normal human Keratinocytes (NHEK).
The antioxidant properties (neutralising the production of reactive oxygen species) of the compound (Ia) are evaluated after a single stress with UVAs on NHEKs, by a test based on the use of the fluorescent probe H2DCFDA on a triple culture.
H2DCFDA (2′-7′dichlorodihydrofluorescein diacetate, Fischer Scientific) is a probe that, after having diffused into the cell and after its acetate group has been split by intracellular esterases, can be oxidised by free radicals (H2O2) into DCF (2′-7′ dichlorofluorescein), a fluorescent compound. The production of the free radicals can thus be quantified by the level of fluorescence emitted by the oxidised probe. The more the cell produces free radicals, the higher the level of fluorescence detected.
After 24 hours of incubation with the compound (Ia) (3 ppm in an aqueous solution with 0.1% dimethylsulfoxide) or the reference elements, the cells are placed in the presence of the H2DCFDA probe at 3 ppm for 1 hour at 37° C., 5% CO2 in order to allow its intracellular diffusion.
The reference antioxidant elements are: Trolox ([…], Sigma), at 20 ppm and Quercetin (quercetin dihydrate, Sigma), at 18 ppm.
After one rinsing, the cells are subjected to a single stress with UVAs (in the absence of compound (Ia)) at a rate of 10 joules per square centimetre. The quantification of the fluorescence emitted (excitation: 485 nm; emission: 520 nm) is carried out immediately after the end of the UVA stress. […]
In order to provide a result representative of the cellular population of each condition after a single stress with UVAs, a cellular viability test (MTS) is carried out immediately after the quantification of the fluorescence emitted. The fluorescence values are thus normalised with respect to the cellular viabilities in order for it to be possible to compare the levels of fluorescence of the various conditions to each other.

In the next assay the test system is NHEK cells. Nature of the assay: Survival (WST1) of NHEK keratinocytes exposed to cigarette extract, comparison with caffeic acid. In kind it is cell-based, human. The note with it: compound 10 ppm pretreatment 24 h and treatment 24 h, cigarette extract 1/50, cigarette extract alone 55% survival, FIG. 4. The method, then: This study aims to compare the protective or repairing effect of the compounds according to the invention (Ia) and (Ib) with respect to the damage induced on the skin by a cigarette extract. For comparison, caffeic acid (supplier: Acros) is also tested. This acid forms a basic unit of the compounds (Ia) and (Ib) according to the invention.
The NHEK cells are inoculated in a 96-well plate in a suitable medium (Promocell), at a rate of 9000 cells per well, and incubated 24 h at 37° C. and 5% carbon dioxide.
The compounds to be tested are prepared as follows: • (Ia): 10 mg of compound+909 μL of DMSO • (Ib): 7 mg of compound+636 μL of DMSO • caffeic acid: 10 mg of compound+909 μL of DMSO
Each stock solution above is diluted 1000 times, to 10 ppm in the culture medium, then the solutions obtained are filtered by means of a nylon filter (0.22 μm). The final solutions are concentrated to 10 ppm in 0.1% DMSO.
Solutions at 20 ppm in 0.2% DMSO are also prepared in a similar manner, for dilution in the cigarette extract.
An extract of 20 cigarettes is prepared as indicated in example 14 above. This extract is then diluted to 1/50 in the culture medium; or to 2/50 in the culture medium, then to 1/2 in the culture medium, to which the compound to be tested is added at 20 ppm.
The cells are pretreated for 24 h with the compound to be tested at 10 ppm in the culture medium.
The cells are then treated with the cigarette extract diluted to 1/50th with or without the compound tested at 10 ppm for 24 h.
3 h before the end of the test, 10 μl of WST1 cellular proliferation reactant (Roche) are added into each well. The absorbance at 450 nm is measured before and after the addition of WST1 reactant, by means of a Multiskan® reader. The treated cells are compared to the untreated cells and to the cells exposed to the cigarette extract.

With `Cc1ncc(CO)c(CNC(=O)/C=C/c2ccc(O)c(O)c2)c1O` [Compound (Ia)], the “Assay of the fluorescence with H2DCFDA after irradiation of NHEKs with UVAs” value in assay [1] (24 h incubation, (Ia) 3 ppm, Trolox 20 ppm, Quercetin 18 ppm, UVA 10 J/cm2, normalised to viability (MTS), CTL UVA 289687.6, CTL without stress 16441.9) was determined as 198588.8. Besides, the “reduction of the generation of intracellular H2O2 after UVA stress” value in assay [1] (NHEK, compound 3 ppm, single UVA stress, FIG. 1) amounted to 40%. For the same compound, in the assay with NHEK cells, the “% survival of the cells” value came to 108%.
